Earlier results, collected in PubChem BioAssay AID1259409 (Chemical Carcinogenesis Research Information System (CCRIS), 2018).

Test system: rodent chemically induced tumor inhibition, incidence and multiplicity
Assay: CCRIS tumor inhibitor studies
Conditions: Route [Inhibitor]: ORAL, Species: RAT, Promoter: NONE USED

O=[Se](O)O
tumour outcome (control, treated, inhibition, significance) (Carcinogen: 7,12-DIMETHYLBENZ[A]ANTHRACENE, 57-97-6, Dose [Inhibitor]: 5 PPM IN 25% CORN OIL DIET DAILY FOR 4 WK STARTING 2 WK BEFORE CARCINOGEN TREATMENT AND CONTINUING FOR 2 WK POST CARCINO, Strain/Sex: SPRAGUE-DAWLEY/FEMALE, Target Tissue: Type of Lesion: MAMMARY GLAND: ADENOCARCINOMA, Dose [Carcinogen]: 10 MG ONCE AT 50 D OF AGE): 97%, 72%, 26%, p<0.02 | tumour outcome (control, treated, inhibition, significance) (Carcinogen: 7,12-DIMETHYLBENZ[A]ANTHRACENE, 57-97-6, Dose [Inhibitor]: 5 PPM IN 25% CORN OIL DIET DAILY FOR 10 WK STARTING 2 WK AFTER CARCINOGEN TREATMENT (STUDY DURATION: 24 WK), Strain/Sex: SPRAGUE-DAWLEY/FEMALE, Target Tissue: Type of Lesion: MAMMARY GLAND: ADENOCARCINOMA, Dose [Carcinogen]: 10 MG ONCE AT 50 D OF AGE): 97%, 86%, 11%, not significant | tumour outcome (control, treated, inhibition, significance) (Carcinogen: 7,12-DIMETHYLBENZ[A]ANTHRACENE, 57-97-6, Dose [Inhibitor]: 5 PPM IN 25% CORN OIL DIET DAILY FOR 12 WK STARTING 12 WK AFTER CARCINOGEN TREATMENT (STUDY DURATION: 24 WK), Strain/Sex: SPRAGUE-DAWLEY/FEMALE, Target Tissue: Type of Lesion: MAMMARY GLAND: ADENOCARCINOMA, Dose [Carcinogen]: 10 MG ONCE AT 50 D OF AGE): 97%, 91%, 6%, not significant | tumour outcome (control, treated, inhibition, significance) (Carcinogen: 7,12-DIMETHYLBENZ[A]ANTHRACENE, 57-97-6, Dose [Inhibitor]: 5 PPM IN 25% CORN OIL DIET DAILY FOR 14 WK STARTING 2 WK BEFORE CARCINOGEN TREATMENT (STUDY DURATION: 26 WK), Strain/Sex: SPRAGUE-DAWLEY/FEMALE, Target Tissue: Type of Lesion: MAMMARY GLAND: ADENOCARCINOMA, Dose [Carcinogen]: 10 MG ONCE AT 50 D OF AGE): 97%, 57%, 41%, p<0.02 | tumour outcome (control, treated, inhibition, significance) (Carcinogen: 7,12-DIMETHYLBENZ[A]ANTHRACENE, 57-97-6, Dose [Inhibitor]: 5 PPM IN 25% CORN OIL DIET DAILY FOR 22 WK STARTING 2 WK AFTER CARCINOGEN TREATMENT AND CONTINUING FOR DURATION OF STUDY, Strain/Sex: SPRAGUE-DAWLEY/FEMALE, Target Tissue: Type of Lesion: MAMMARY GLAND: ADENOCARCINOMA, Dose [Carcinogen]: 10 MG ONCE AT 50 D OF AGE): 97%, 69%, 26%, p<0.02 | tumour outcome (control, treated, inhibition, significance) (Carcinogen: 7,12-DIMETHYLBENZ[A]ANTHRACENE, 57-97-6, Dose [Inhibitor]: 5 PPM IN 25% CORN OIL DIET DAILY FOR 26 WK STARTING 2 WK BEFORE CARCINOGEN TREATMENT AND CONTINUING FOR DURATION OF STUD, Strain/Sex: SPRAGUE-DAWLEY/FEMALE, Target Tissue: Type of Lesion: MAMMARY GLAND: ADENOCARCINOMA, Dose [Carcinogen]: 10 MG ONCE AT 50 D OF AGE): 97%, 46%, 53%, p<0.02 | tumour outcome (control, treated, inhibition, significance) (Carcinogen: AZOXYMETHANE, 25843-45-2, Dose [Inhibitor]: 0.5 PPM IN DIET BEGINNING 1 WK POST CARCINOGEN DOSE FOR DURATION OF STUDY (STUDY DURATION: 39 WK), Strain/Sex: F344/MALE, Target Tissue: Type of Lesion: COLON: ADENOCARCINOMA, Dose [Carcinogen]: 15 MG/KG BW 1/WK FOR 2 WK): 10/27 (37%), 9/27 (33%), 11%, not significant | tumour outcome (control, treated, inhibition, significance) (Carcinogen: AZOXYMETHANE, 25843-45-2, Dose [Inhibitor]: 0.5 PPM IN DIET BEGINNING 1 WK POST CARCINOGEN DOSE FOR DURATION OF STUDY (STUDY DURATION: 39 WK), Strain/Sex: F344/MALE, Target Tissue: Type of Lesion: COLON: ADENOMA, Dose [Carcinogen]: 15 MG/KG BW 1/WK FOR 2 WK): 16/27 (59%), 20/27 (74%), -25%, not significant | tumour outcome (control, treated, inhibition, significance) (Carcinogen: AZOXYMETHANE, 25843-45-2, Dose [Inhibitor]: 0.5 PPM IN DIET BEGINNING 1 WK POST CARCINOGEN DOSE FOR DURATION OF STUDY (STUDY DURATION: 39 WK), Strain/Sex: F344/MALE, Target Tissue: Type of Lesion: DUODENUM: ADENOCARCINOMA, Dose [Carcinogen]: 15 MG/KG BW 1/WK FOR 2 WK): 7/27 (26%), 7/27 (26%), 0%, not significant | tumour outcome (control, treated, inhibition, significance) (Carcinogen: AZOXYMETHANE, 25843-45-2, Dose [Inhibitor]: 0.5 PPM IN DIET BEGINNING 1 WK POST CARCINOGEN DOSE FOR DURATION OF STUDY (STUDY DURATION: 39 WK), Strain/Sex: F344/MALE, Target Tissue: Type of Lesion: DUODENUM: ADENOMA, Dose [Carcinogen]: 15 MG/KG BW 1/WK FOR 2 WK): 3/27 (11%), 4/27 (15%), -36%, not significant | tumour outcome (control, treated, inhibition, significance) (Carcinogen: AZOXYMETHANE, 25843-45-2, Dose [Inhibitor]: 0.5 PPM IN DIET BEGINNING 3 WK PRIOR TO CARCINOGEN DOSE AND CONTINUING FOR 1 WK POST CARCINOGEN DOSE (STUDY DURATION: 39, Strain/Sex: F344/MALE, Target Tissue: Type of Lesion: COLON: ADENOMA, Dose [Carcinogen]: 15 MG/KG BW 1/WK FOR 2 WK): 16/27 (59%), 16/27 (59%), 0%, not significant | tumour outcome (control, treated, inhibition, significance) (Carcinogen: AZOXYMETHANE, 25843-45-2, Dose [Inhibitor]: 0.5 PPM IN DIET BEGINNING 3 WK PRIOR TO CARCINOGEN DOSE AND CONTINUING FOR 1 WK POST CARCINOGEN DOSE (STUDY DURATION: 39, Strain/Sex: F344/MALE, Target Tissue: Type of Lesion: DUODENUM: ADENOCARCINOMA, Dose [Carcinogen]: 15 MG/KG BW 1/WK FOR 2 WK): 7/27 (26%), 7/27 (26%), 0%, not significant | tumour outcome (control, treated, inhibition, significance) (Carcinogen: AZOXYMETHANE, 25843-45-2, Dose [Inhibitor]: 0.5 PPM IN DIET BEGINNING 3 WK PRIOR TO CARCINOGEN DOSE AND CONTINUING FOR 1 WK POST CARCINOGEN DOSE (STUDY DURATION: 39, Strain/Sex: F344/MALE, Target Tissue: Type of Lesion: DUODENUM: ADENOMA, Dose [Carcinogen]: 15 MG/KG BW 1/WK FOR 2 WK): 3/27 (11%), 2/27 (7%), 36%, not calculated | tumour outcome (control, treated, inhibition, significance) (Carcinogen: AZOXYMETHANE, 25843-45-2, Dose [Inhibitor]: 2.5 PPM IN DIET BEGINNING 1 WK POST CARCINOGEN DOSE FOR DURATION OF STUDY (STUDY DURATION: 39 WK), Strain/Sex: F344/MALE, Target Tissue: Type of Lesion: COLON: ADENOCARCINOMA, Dose [Carcinogen]: 15 MG/KG BW 1/WK FOR 2 WK): 10/27 (37%), 1/27 (4%), 89%, p<0.05 | tumour outcome (control, treated, inhibition, significance) (Carcinogen: AZOXYMETHANE, 25843-45-2, Dose [Inhibitor]: 2.5 PPM IN DIET BEGINNING 1 WK POST CARCINOGEN DOSE FOR DURATION OF STUDY (STUDY DURATION: 39 WK), Strain/Sex: F344/MALE, Target Tissue: Type of Lesion: COLON: ADENOMA, Dose [Carcinogen]: 15 MG/KG BW 1/WK FOR 2 WK): 16/27 (59%), 12/27 (44%), 25%, not significant
